Square brackets hold non-standard residues; d marks the D form. Ends that are not written are not given here. Peptide text beside a SMILES is read from it. Phe(4-NO2) = N[C@@H](Cc1ccc([N+](=O)[O-])cc1)C(=O)O; Bta = N[C@@H](Cc1csc2ccccc12)C(=O)O; Phg = N[C@H](C(=O)O)c1ccccc1; Nle = CCCC[C@H](N)C(=O)O; Nva = CCC[C@H](N)C(=O)O
Experiments:
[1] = tested on: T cell lines against a natural (non-mutated) epitope (SSX-241-49); assay: Cross-reactivity and functional avidity: IFN-gamma from T cell lines against natural SSX-2 41-49 epitope; type: cell-based, HHD transgenic mice; conditions: for Cross-reactivity and fct avidity (native to analogs)*: IFN-gamma from T cell line raised against native SSX-2 41-49, native = 1, lower = more active;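 on all read-outs here: peptide analogs tested ex vivo with competent APCs, IFN-gamma in supernatant measured by ELISA, readouts include minimal triggering concentration, peak effect and concentration at peak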
HLA-A*0201 = HLA-A*0201 (Homo sapiens, UniProt P04439, D140Y/D185E/D98H/E176V/E277Q/G131W/G231S/I119V/I121R/I166T/I218V/L300P/L318F/N151K/N90K/P208A/P217A/Q86G/Q94H/R138H/R169H/T345S); assay: Peptide binding using T2 cells (SSX-2 41-49 analogs); conditions: for Relative affinity (1/RA): half maximal binding of wild-type peptide relative to analog, native = 1.0
From the text: Thus, at limiting concentrations of peptide, it is a measurement of Kon mostly and at saturation levels of peptide it is a measurement of both Kon and Koff.

[2] = tested on: T cells that recognized native PSMA288-297 peptide; assay: Peptide immunization with PSMA analogs, IFN-gamma ELISPOT against native peptide; type: in vivo, HHD transgenic mice; conditions: peptide + pI:C intranodal immunization
Method: Groups of HHD transgenic mice (n=8) were immunized with peptide (natural epitope PSMA288-297, or analogs bearing substitutions at primary or secondary anchor residues) by direct inoculation into the inguinal lymph nodes, with 25 μg in 25 μl of PBS+12.5 μg of pI:C to each lymph node at day 0, 3, 14 and 17.
Mice were sacrificed at 10 days after the last boost, and splenocytes prepared and assessed for IFN-γ production by ELISPOT analysis. […] At 48 hours after incubation, the assay was developed and the frequency of cytokine-producing T cells that recognized native PSMA288-297 peptide was automatically counted. The data is represented in FIG. 22 as the number of spot forming colonies/well (mean of triplicates±SD). […] To the extent that the poor immunogenicity of the native epitope reflects tolerance, the improved activity of these analogs represents tolerance breaking.

Relative affinity (1/RA) (HLA-A*0201) | Compound | Cross-reactivity and fct avidity (native to analogs)* [1] | cross-reactivity / IFN-gamma inducing activity relative to wild-type, in words ([1]; SSX-2 41-49 analogs, wild-type specific T cells) | binding affinity (and stability) with HLA-A*0201 relative to wild-type, in words (HLA-A*0201; SSX-2 41-49 analogs) | IFN-γ ELISPOT response against native epitope, in words [2]
1.7 | CC[C@H](C)[C@H](NC(=O)[C@H](CCCCN)NC(=O)[C@H](CCC(=O)O)NC(=O)[C@H](CO)NC(=O)[C@@H](NC(=O)[C@@H](N)Cc1ccccc1)C(C)C)C(=O)N[C@@H](Cc1ccccc1)C(=O)N[C@@H](Cc1ccccc1)C(=O)N[C@H](C(=O)O)C(C)C [SSX2 41-49 (K41F, A42V, Y48F)] | 10 | – | – | –
2.5 | CC[C@H](C)[C@H](NC(=O)[C@H](CCCCN)NC(=O)[C@H](CCC(=O)O)NC(=O)[C@H](CO)NC(=O)[C@@H](NC(=O)[C@@H](N)Cc1ccccc1)C(C)C)C(=O)N[C@@H](Cc1ccccc1)C(=O)N[C@H](C(=O)N[C@H](C(=O)O)C(C)C)c1ccccc1 [SSX2 41-49 (K41F, A42V, Y48Phg), FVSEKIF(Phg)V] (H-FVSEKIF[Phg]V-OH) | >10 | – | – | –
1.0 | CC[C@H](C)[C@H](NC(=O)[C@H](CCCCN)NC(=O)[C@H](CCC(=O)O)NC(=O)[C@H](CO)NC(=O)[C@@H](NC(=O)[C@@H](N)Cc1ccc(O)cc1)C(C)C)C(=O)N[C@@H](Cc1ccccc1)C(=O)N[C@@H](Cc1ccc(O)cc1)C(=O)N[C@H](C(=O)O)C(C)C [SSX2 41-49 (K41Y, A42V)] | 0.1 | – | – | –
3.9 | FVSEKIFSV [SSX2 41-49 (K41F, A42V, Y48S)] | >10 | – | – | –
3.8 | FVSEKIFTV [SSX2 41-49 (K41F, A42V, Y48T)] | >10 | – | – | –
1.0 | KASEKIFYI [SSX2 41-49 (V49I)] | 10 | – | – | –
3.3 | WLSEKIFYV [SSX2 41-49 (K41W, A42L)] | 0.3 | – | – | –
2.9 | WMSEKIFYV [SSX2 41-49 (K41W, A42M)] | 1 | – | – | –
3.0 | WVSEKIFYV [SSX2 41-49 (K41W, A42V)] | 1 | – | – | –
1.2 | YLSEKIFYV [SSX2 41-49 (K41Y, A42L)] | – | – | – | –
0.6 | YMSEKIFYV [SSX2 41-49 (K41Y, A42M)] | 3 | – | – | –

Second part, the compound before the results:

Compound | Relative affinity (1/RA) (HLA-A*0201) | Cross-reactivity and fct avidity (native to analogs)* [1] | cross-reactivity / IFN-gamma inducing activity relative to wild-type, in words ([1]; SSX-2 41-49 analogs, wild-type specific T cells) | binding affinity (and stability) with HLA-A*0201 relative to wild-type, in words (HLA-A*0201; SSX-2 41-49 analogs) | IFN-γ ELISPOT response against native epitope, in words [2]
CC[C@H](C)[C@H](NC(=O)[C@H](CCCCN)NC(=O)[C@H](CCC(=O)O)NC(=O)[C@H](CO)NC(=O)[C@H](C)NC(=O)[C@@H](N)Cc1ccc(OC)cc1)C(=O)N[C@@H](Cc1ccccc1)C(=O)N[C@@H](Cc1ccc(O)cc1)C(=O)N[C@H](C(=O)O)C(C)C [SSX2 41-49 (K41(O-methyl Tyr))] (H-Y(Me)ASEKIFYV-OH) | 0.8 | 3 | – | – | –
CC[C@H](C)[C@H](NC(=O)[C@H](CCCCN)NC(=O)[C@H](CCC(=O)O)NC(=O)[C@H](CO)NC(=O)[C@H](C)NC(=O)[C@@H](N)Cc1ccc([N+](=O)[O-])cc1)C(=O)N[C@@H](Cc1ccccc1)C(=O)N[C@@H](Cc1ccc(O)cc1)C(=O)N[C@H](C(=O)O)C(C)C [SSX2 41-49 (K41(Phe-4N02))] (H-[Phe(4-NO2)]ASEKIFYV-OH) | 1.1 | 3 | much lower concentration | about the same as that of wild-type peptide | –
CC[C@H](C)[C@H](NC(=O)[C@H](CCCCN)NC(=O)[C@H](CCC(=O)O)NC(=O)[C@H](CO)NC(=O)[C@H](C)NC(=O)[C@@H](N)c1ccccc1)C(=O)N[C@@H](Cc1ccccc1)C(=O)N[C@@H](Cc1ccc(O)cc1)C(=O)N[C@H](C(=O)O)C(C)C [SSX2 41-49 (K41(Phg))] (H-[Phg]ASEKIFYV-OH) | 2.5 | 0.1 | – | – | –
CC[C@H](C)[C@H](NC(=O)[C@H](CCCCN)NC(=O)[C@H](CCC(=O)O)NC(=O)[C@H](CO)NC(=O)[C@H](C)NC(=O)[C@@H](N)Cc1csc2ccccc12)C(=O)N[C@@H](Cc1ccccc1)C(=O)N[C@@H](Cc1ccc(O)cc1)C(=O)N[C@H](C(=O)O)C(C)C [SSX2 41-49 (K41(b-(3-benzothienyl)Ala))] (H-[Bta]ASEKIFYV-OH) | 0.6 | 10 | – | – | –
CCCC[C@H](NC(=O)[C@H](CO)NC(=O)[C@@H](NC(=O)[C@@H](N)Cc1ccccc1)C(C)C)C(=O)N[C@@H](CCCCN)C(=O)N[C@H](C(=O)N[C@@H](Cc1ccccc1)C(=O)N[C@@H](Cc1ccc(O)cc1)C(=O)N[C@H](C(=O)O)C(C)C)[C@@H](C)CC [SSX2 41-49 (K41F, A42V, E44Nle), FVS(Nle)KIFYV] (H-FVS[Nle]KIFYV-OH) | 1.1 | 10 | – | – | –
CCC[C@H](NC(=O)[C@H](CO)NC(=O)[C@@H](NC(=O)[C@@H](N)Cc1ccccc1)C(C)C)C(=O)N[C@@H](CCCCN)C(=O)N[C@H](C(=O)N[C@@H](Cc1ccccc1)C(=O)N[C@@H](Cc1ccc(O)cc1)C(=O)N[C@H](C(=O)O)C(C)C)[C@@H](C)CC [SSX2 41-49 (K41F, A42V, E44Nva), FVS(Nva)KIFYV] (H-FVS[Nva]KIFYV-OH) | 3.9 | 3 | – | – | –
CCCC[C@H](NC(=O)[C@H](CCCCN)NC(=O)[C@H](CCC(=O)O)NC(=O)[C@H](CO)NC(=O)[C@@H](NC(=O)[C@@H](N)Cc1ccccc1)C(C)C)C(=O)N[C@@H](Cc1ccccc1)C(=O)N[C@@H](Cc1ccc(O)cc1)C(=O)N[C@H](C(=O)O)C(C)C [SSX2 41-49 (K41F, A42V, I46Nle), FVSEK(Nle)FYV] (H-FVSEK[Nle]FYV-OH) | 1.1 | 10 | – | – | –
CCC[C@H](NC(=O)[C@H](CCCCN)NC(=O)[C@H](CCC(=O)O)NC(=O)[C@H](CO)NC(=O)[C@@H](NC(=O)[C@@H](N)Cc1ccccc1)C(C)C)C(=O)N[C@@H](Cc1ccccc1)C(=O)N[C@@H](Cc1ccc(O)cc1)C(=O)N[C@H](C(=O)O)C(C)C [SSX2 41-49 (K41F, A42V, I46Nva), FVSEK(Nva)FYV] (H-FVSEK[Nva]FYV-OH) | 2.4 | 1 | – | – | –
FISEKIFYV [SSX2 41-49 (K41F, A42I)] | 2.7 | 0.3 | – | – | –
FVSDKIFYV [SSX2 41-49 (K41F, A42V, E44D)] | 1.1 | >10 | – | – | –
FVSEKIFYM [SSX2 41-49 (K41F, A42V, V49M)] | 0.8 | >10 | – | – | –
FVSEKIFYV [SSX2 41-49 (K41F, A42V)] | 3.1 | 0.1 | – | – | –
FVSEKLFSA | 2.4 | >10 | – | – | –
FVSEKLFTV [SSX2 41-49 (K41F, A42V, I46L, Y48T)] | 2.6 | >10 | – | – | –
FVSEKLFYV [SSX2 41-49 (K41F, A42V, I46L)] | 1.9 | 3 | – | – | –
FVSQKIFYV [SSX2 41-49 (K41F, A42V, E44Q)] | 0.4 | 10 | – | – | –
GLWSIPVHPI [Peptide P290W] | – | – | – | – | increased priming of immune responses against the native epitope
KISEKIFYV [SSX2 41-49 (A42I)] | 1.7 | 3 | – | – | –
KLSEKIFYI [SSX2 41-49 (A42L, V49I)] | 2.6 | 0.03 | – | – | –
KLSEKIFYV [SSX2 41-49-NH2 (A42L)] | – | 3 | – | – | –
KMSEKIFYV [SSX2 41-49 (A42M)] | 1.7 | 0.1 | – | – | –
KNal-1SEKIFYV [SSX2 41-49 (A42(Nal-1))] | – | >10 | – | – | –
KVSEKIFYI [SSX2 41-49 (A42V, V491)] | – | 0.3 | – | – | –
KVSEKIFYV [SSX2 41-49-NH2 (A42V)] | – | 10 | – | – | –
